Results on five molecules are retold here after ChEMBL document CHEMBL3585323, “Effect of intercalator substituent and nucleotide sequence on the stability of DNA- and RNA-naphthalimide complexes” (Bioorg Med Chem, 2015).

Test [1] in a line: Binding affinity to 5'-d(GTAATATTAC)2-3' DNA assessed as change in melting temperature at 1:1 DNA to compound molar ratio by spectrophotometric analysis.
The nature of test [2]: Binding affinity to 5'-d(GTCCGTCGGAC)-3'/5'-(GTCCGACGGAC)-3' DNA assessed as change in melting temperature at 1:1 DNA to compound molar ratio by spectrophotometric analysis.
Test [3] has as its system Nucleic Acid. Kind of test: Induction of DNA intercalation using 5'-d(GTCCGCGGAC)2-3' at 250 uM by UV-vis spectrophotometric analysis. The test is classed as nucleic-acid assay.
In test [4] the test system is Nucleic Acid. Kind of test: Induction of DNA intercalation using 5'-d(GTAATATTAC)2-3' at 250 uM by UV-vis spectrophotometric analysis. The test is classed as nucleic-acid assay.
Test [5] has as its system Nucleic Acid. Kind of test: Induction of DNA intercalation using 5'-r(GUCCGCGGAC)2-3' at 250 uM by UV-vis spectrophotometric analysis. The test is classed as nucleic-acid assay.
Test [6] in a line: Binding affinity to 5'-d(GTCCGCGGAC)2-3' DNA assessed as change in melting temperature at 1:1 DNA to compound molar ratio by spectrophotometric analysis.
Test [7] has as its system Nucleic Acid. Kind of test: Induction of DNA intercalation using 5'-r(GCGCGCGC)2-3' at 250 uM by UV-vis spectrophotometric analysis. The test is classed as nucleic-acid assay.
Test [8] has as its system Nucleic Acid. Kind of test: Induction of DNA intercalation using 5'-d(GCGCGCGC)2-3' at 250 uM by UV-vis spectrophotometric analysis. The test is classed as nucleic-acid assay.
Test [9] can be described thus: Binding affinity to 5'-d(ATATAGTATATA)-3'/5'-(TATATACTATAT)-3' DNA assessed as change in melting temperature at 1:1 DNA to compound molar ratio by spectrophotometric analysis.
A short description of test [10]: Binding affinity to 5'-d(ATATATGATATA)-3'/5'-(TATATCATATAT)-3' DNA assessed as change in melting temperature at 1:1 DNA to compound molar ratio by spectrophotometric analysis.
The nature of test [11]: Binding affinity to 5'-d(ATATATATATAT)2-3' DNA assessed as change in melting temperature at 1:1 DNA to compound molar ratio by spectrophotometric analysis.
In test [12] the test system is Nucleic Acid. Kind of test: Induction of DNA intercalation using 5'-d(GTCCGTCGGAC)-3'/5'-(GTCCGACGGAC)-3' at 250 uM by UV-vis spectrophotometric analysis. The test is classed as nucleic-acid assay.
A short description of test [13]: Binding affinity to 5'-r(GCGCGCGC)2-3' DNA assessed as change in melting temperature at 1:1 DNA to compound molar ratio by spectrophotometric analysis.
In test [14] the test system is Nucleic Acid. Kind of test: Induction of DNA intercalation using 5'-d(ATATATGATATA)-3'/5'-(TATATCATATAT)-3' at 250 uM by UV-vis spectrophotometric analysis. The test is classed as nucleic-acid assay.
Test [15] can be described thus: Binding affinity to 5'-r(GUCCGCGGAC)2-3' DNA assessed as change in melting temperature at 1:1 DNA to compound molar ratio by spectrophotometric analysis.
Test [16] can be described thus: Binding affinity to 5'-d(GCGCGCGC)2-3' DNA assessed as change in melting temperature at 1:1 DNA to compound molar ratio by spectrophotometric analysis.
For test [17], the system named is Nucleic Acid. Kind of test: Induction of DNA intercalation using 5'-d(ATATAGTATATA)-3'/5'-(TATATACTATAT)-3' at 250 uM by UV-vis spectrophotometric analysis. Type of test: nucleic-acid assay.
The subject of test [18] is Nucleic Acid. Kind of test: Induction of DNA intercalation using 5'-d(ATATATATATAT)2-3' at 250 uM by UV-vis spectrophotometric analysis. The test is classed as nucleic-acid assay.

Molecules are shown by their SMILES. Activity calls are given as the source filed them. The rule behind the calls is not given here.

Regarding `CN(C)CCN1C(=O)c2cccc3cccc(c23)C1=O`, the ΔTm (as a rule, the shift of the melting midpoint relative to a reference) in test [1] came out at 8.1 °C; in test [2], 0 °C; in [6], 5.6 °C; in [9] it was 11.6 °C; in test [10] it was 19.4 °C; in [11] it was 0 °C. For the same molecule, the results for the thermal shift (ΔTm) in [13], in [15] and in [16] were 0 °C, 0 °C and 8.7 °C, respectively. The result with Nucleic Acid [3], with Nucleic Acid [4], in the test with Nucleic Acid [5], in the test on Nucleic Acid [7], with Nucleic Acid [8] and in the test on Nucleic Acid [12] was Active. The outcome with Nucleic Acid [14], with Nucleic Acid [17] and in the test on Nucleic Acid [18] was Active.
In the case of `CN(C)CCN1C(=O)c2cccc3cc(O)cc(c23)C1=O`, the ΔTm was found to be 4.4 °C in test [1]; 2.2 °C in test [2]; 1.6 °C in test [6]; 5.7 °C in test [9]; 14.7 °C in test [10]; 0 °C in [11]. The figures for the thermal shift (ΔTm) in test [13], in [15] and in test [16] were 0 °C, 0 °C and 1.6 °C, respectively. For the same molecule, the result in the test with Nucleic Acid [3], in the test on Nucleic Acid [4], in the test with Nucleic Acid [5], in the test with Nucleic Acid [7], in the test with Nucleic Acid [8] and in the test on Nucleic Acid [12] was Active. In addition, the outcome in the test on Nucleic Acid [14], with Nucleic Acid [17] and in the test on Nucleic Acid [18] was Active.
`CN(C)CCN1C(=O)c2cccc3cc(Cl)cc(c23)C1=O`: the ΔTm in test [1] came out at 4.5 °C; in test [2], 0 °C; in test [6], 1.1 °C; in [9] it was 0 °C; in [10] it was 7 °C; in test [11] it was 0 °C. Also, the ΔTm was 0 °C in [13], 0 °C in test [15] and 6.3 °C in [16]. In addition, the result in the test on Nucleic Acid [3], with Nucleic Acid [4], with Nucleic Acid [5], in the test on Nucleic Acid [7], in the test on Nucleic Acid [8] and in the test with Nucleic Acid [12] was Active. Moreover, the result with Nucleic Acid [14], with Nucleic Acid [17] and in the test on Nucleic Acid [18] was Active.
For `CC(=O)Nc1cc2c3c(cccc3c1)C(=O)N(CCN(C)C)C2=O`, the ΔTm was found to be 8.6 °C in test [1]; 0 °C in test [2]; 5.6 °C in test [6]; 4.7 °C in test [9]; 8.8 °C in [10]; 0 °C in test [11]. Also, the ΔTm in [13] came to 0 °C; in [15], 0 °C; in test [16], 4.6 °C. The outcome with Nucleic Acid [3], with Nucleic Acid [4], with Nucleic Acid [5], in the test with Nucleic Acid [7], in the test on Nucleic Acid [8] and in the test on Nucleic Acid [12] was Active. Also, the outcome in the test with Nucleic Acid [14], in the test on Nucleic Acid [17] and in the test on Nucleic Acid [18] was Active.
Take `CN(C)CCN1C(=O)c2cccc3cc(I)cc(c23)C1=O`: the ΔTm in [1] was found to be 4.4 °C; in test [2], 0 °C; in [6], 0 °C; in test [9], 1.7 °C; in [10], 8.4 °C; in test [11] it was 0 °C. Further, the values for the ΔTm in test [13], in test [15] and in test [16] were 0 °C, 0 °C and 2.5 °C, respectively. The result in the test on Nucleic Acid [3], with Nucleic Acid [4], in the test on Nucleic Acid [5], in the test with Nucleic Acid [7], in the test with Nucleic Acid [8] and in the test on Nucleic Acid [12] was Active. The result in the test with Nucleic Acid [14], in the test on Nucleic Acid [17] and in the test with Nucleic Acid [18] was Active.
